In the supplement of paper PMC10307832:

Columns and labels:
Assay in all cases: relative viability (nuclei count vs DMSO), 5 days (fraction); higher = more cells survive
[1] = compound: CC(C)(C)c1cc(NC(=O)Nc2ccc(-c3cn4c(n3)sc3cc(OCCN5CCOCC5)ccc34)cc2)no1 [Quizartinib] + O=C(c1cc(Cc2n[nH]c(=O)c3ccccc23)ccc1F)N1CCN(C(=O)C2CC2)CC1 [Olaparib] (partner 8 µM)
Outline: (§1)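 One day after seeding in 1536-well plates, lung cancer cell lines were dosed by pin tool. Dosing was either single-drug or a fixed anchor-drug dose plus five library-drug doses (not always all listed) in √10 steps. After 5 days, nuclei were stained in one fix-and-stain step and counted on 4× images, and relative viability is the nuclei count of treated wells over that of vehicle wells, given as the median of duplicate plates.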

[2] = compound: CC(C)(C)c1cc(NC(=O)Nc2ccc(-c3cn4c(n3)sc3cc(OCCN5CCOCC5)ccc34)cc2)no1 [Quizartinib] + CS(=O)(=O)N1CCN(Cc2cc3nc(-c4cccc5[nH]ncc45)nc(N4CCOCC4)c3s2)CC1 [Pictilisib] (partner 1 µM)
Outline: as §1

[3] = compound: CC(C)(C)c1cc(NC(=O)Nc2ccc(-c3cn4c(n3)sc3cc(OCCN5CCOCC5)ccc34)cc2)no1 [Quizartinib] + CC(C)C[C@H](NC(=O)[C@H](Cc1ccccc1)NC(=O)c1cnccn1)B(O)O [Bortezomib] (partner 0.002 µM)
Outline: as §1

[4] = compound: COCC[n+]1c2c(n(Cc3cnccn3)c1C)C(=O)c1ccccc1C2=O [YM155] + Cc1nc(Nc2ncc(C(=O)Nc3c(C)cccc3Cl)s2)cc(N2CCN(CCO)CC2)n1 [Dasatinib] (partner 0.075 µM)
Outline: as §1

Cell Line | relative viability ([1]; first compound 0.001 µM) | relative viability ([1]; first compound 0.003162 µM) | relative viability ([1]; first compound 0.01 µM) | relative viability ([1]; first compound 0.03162 µM) | relative viability ([1]; first compound 0.1 µM) | relative viability ([2]; first compound 0.001 µM) | relative viability ([2]; first compound 0.003162 µM) | relative viability ([2]; first compound 0.01 µM) | relative viability ([2]; first compound 0.03162 µM) | relative viability ([2]; first compound 0.1 µM) | relative viability ([3]; first compound 0.001 µM) | relative viability ([3]; first compound 0.003162 µM) | relative viability ([3]; first compound 0.01 µM) | relative viability ([3]; first compound 0.03162 µM) | relative viability ([3]; first compound 0.1 µM) | relative viability ([4]; first compound 0.002 µM) | relative viability ([4]; first compound 0.006325 µM) | relative viability ([4]; first compound 0.02 µM) | relative viability ([4]; first compound 0.06325 µM)
NCI-H1651 | 0.163 | 0.174 | 0.192 | 0.186 | 0.177 | 0.42 | 0.626 | 0.588 | 0.423 | 0.625 | 0.801 | 0.938 | 1.08 | 0.888 | 0.993 | 0.437 | 0.372 | 0.442 | 0.39
NCI-H1666 | 0.704 | 0.713 | 0.662 | 0.678 | 0.853 | 0.458 | 0.325 | 0.415 | 0.399 | 0.264 | 0.738 | 0.753 | 0.823 | 0.511 | 0.813 | 0.812 | 0.791 | 0.799 | 0.826
NCI-H1734 | 0.587 | 0.557 | 0.625 | 0.605 | 0.642 | 0.508 | 0.472 | 0.477 | 0.411 | 0.44 | 0.862 | 0.769 | 1.05 | 0.776 | 0.944 | 0.471 | 0.525 | 0.495 | 0.518
NCI-H1755 | 0.832 | 0.809 | 0.946 | 0.948 | 0.855 | 0.39 | 0.439 | 0.416 | 0.401 | 0.436 | 0.858 | 0.979 | 0.956 | 0.973 | 0.969 | 0.449 | 0.4 | 0.467 | 0.453
NCI-H1792 | 0.443 | 0.381 | 0.54 | 0.483 | 0.312 | 0.317 | 0.247 | 0.281 | 0.235 | 0.385 | 0.783 | 0.947 | 1.01 | 0.793 | 0.952 | 0.83 | 0.606 | 0.782 | 0.941
NCI-H1915 | 0.257 | 0.263 | 0.287 | 0.261 | 0.253 | 0.838 | 0.875 | 0.698 | 1 | 1.05 | 0.924 | 0.836 | 0.916 | 1.06 | 1.01 | 0.311 | 0.284 | 0.309 | 0.301
NCI-H1975 | 0.813 | 0.77 | 0.87 | 0.784 | 0.791 | 0.288 | 0.282 | 0.283 | 0.284 | 0.281 | 0.333 | 0.374 | 0.389 | 0.368 | 0.497 | 0.312 | 0.334 | 0.352 | 0.233
NCI-H1993 | 0.968 | 1.24 | 1.07 | 1.14 | 1.07 | 0.917 | 0.776 | 0.812 | 0.807 | 0.808 | 1.2 | 1.17 | 1.19 | 1.02 | 1.33 | 0.568 | 0.572 | 0.478 | 0.539
NCI-H2009 | 0.658 | 0.64 | 0.628 | 0.54 | 0.597 | 0.475 | 0.799 | 0.833 | 0.604 | 0.737 | 0.423 | 0.879 | 0.948 | 1.02 | 0.926 | 0.265 | 0.264 | 0.343 | 0.266
NCI-H2023 | 0.418 | 0.422 | 0.513 |  | 0.417 | 0.224 | 0.271 | 0.216 | 0.121 | 0.245 | 0.777 | 0.947 | 0.942 | 0.751 | 0.926 | 0.486 | 0.588 | 0.52 | 0.374
NCI-H2085 | 0.707 | 0.748 | 0.789 | 0.7 | 0.72 | 0.5 | 0.504 | 0.479 | 0.595 | 0.523 | 0.981 | 0.994 | 1.1 | 0.952 | 0.982 | 0.287 | 0.224 | 0.23 | 0.211
NCI-H2087 | 0.654 | 0.578 | 0.619 | 0.587 | 0.583 | 0.393 | 0.867 | 0.916 | 0.665 | 0.81 | 0.833 | 0.927 | 0.88 | 0.939 | 0.914 | 0.765 | 0.78 | 0.964 | 0.775
NCI-H2126 | 0.914 | 0.915 | 0.896 | 0.984 | 0.882 | 0.473 | 0.504 | 0.462 | 0.519 | 0.541 | 0.708 | 1.06 | 1.12 | 1.14 | 1.15 | 0.583 | 0.673 | 0.626 | 0.745
NCI-H2228 | 0.696 | 0.729 | 1.02 | 0.707 | 0.807 | 0.364 | 0.312 | 0.456 | 0.386 | 0.464 | 1.05 | 0.995 | 0.937 | 0.92 | 1.08 | 0.432 | 0.528 | 0.534 | 0.661
NCI-H2347 | 0.458 | 0.518 | 0.701 | 0.57 | 0.608 | 0.628 | 0.958 | 0.793 | 0.633 | 0.783 | 0.757 | 1.14 | 0.968 | 0.959 | 1.23 | 0.323 | 0.321 | 0.35 | 0.334
NCI-H2405 | 0.851 | 0.807 | 0.92 | 0.832 | 0.902 | 0.614 | 0.442 | 0.327 | 0.44 | 0.503 | 0.689 | 1.01 | 1.01 | 1.01 | 0.984 | 0.191 | 0.22 | 0.206 | 0.21
NCI-H3122 | 0.573 | 0.637 | 0.653 | 0.69 | 0.676 | 0.625 | 0.534 | 0.608 | 0.626 | 0.58 | 1.01 | 1 | 1.09 | 1.02 | 0.983 | 0.548 | 0.641 | 0.857 | 0.932
